Test results from patent US20240218022A1, “ANTI-VISTA MACROCYCLIC PEPTIDES AND COMPOSITIONS” (BRISTOL-MYERS SQUIBB COMPANY, priority 2022, published 2024).
Where two headings read alike, the source gives them in different places. Blank lines part the entries; values can stand above or below the compound they belong to. Starred links: 1 amine or outer side, 2 acyl side, 3 side chain; linkers in the order of their positions; H or OH if unused. Positions of bridges follow the written chain, without caps; N, C: chain ends. Non-standard residues stand in square brackets, D forms with d. Residues, ends and D or L forms follow the SMILES beside them. ξ: configuration not given here. Phe(3,4-(OMe)2) = COc1ccc(C[C@H](N)C(=O)O)cc1OC; Phe(3-Me) = Cc1cccc(C[C@H](N)C(=O)O)c1; γGlu = O=C(O)[C@H](CCC(=O)[*:2])N[*:1]; 2Nal = N[C@@H](Cc1ccc2ccccc2c1)C(=O)O; Tic = O=C(O)[C@@H]1Cc2ccccc2CN1; Ahp(2) = CCCCC[C@H](N)C(=O)O; NMeNle = CCCC[C@H](NC)C(=O)O; Tle = CC(C)(C)[C@H](N)C(=O)O; NHexGly = CCCCCCNCC(=O)O; Nle = CCCC[C@H](N)C(=O)O; Orn = NCCC[C@H](N)C(=O)O; Aun = NCCCCCCCCCCC(=O)O; AEEA = NCCOCCOCC(=O)O; ξS = NC(CO)C(=O)O

Biological target: T1, mouse VISTA (mVISTA) (Mus musculus, UniProt Q9D659)
T1 construct: expressed in transfected cells; host or cells: Human embryonic kidney 293T cells
T1 sequence (Q9D659 33-308): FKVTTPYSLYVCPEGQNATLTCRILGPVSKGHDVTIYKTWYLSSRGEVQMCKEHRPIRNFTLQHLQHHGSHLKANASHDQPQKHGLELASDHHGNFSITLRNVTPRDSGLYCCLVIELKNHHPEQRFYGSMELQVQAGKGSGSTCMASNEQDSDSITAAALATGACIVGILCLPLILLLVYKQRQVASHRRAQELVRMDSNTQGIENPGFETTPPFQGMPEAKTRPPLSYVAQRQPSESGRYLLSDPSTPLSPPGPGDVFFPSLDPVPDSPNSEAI
Test: Cell-Based Binding High-Content Assay For mVISTA (HC CBA mVISTA)
Procedure, shortened: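 Competition of compound with a biotinylated peptide (final 2 nM, 30 min at RT) for binding to mVISTA on 293T cells, run under no-wash or wash (1 h compound preincubation then removal) formats. Readout by Alexa 647–streptavidin imaging on a high-content platform; four-parameter logistic fit gave IC50.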

[1] = cell-based binding high-content assay, mVISTA, the 16th table, read-out: HC CBA mVISTA IC50
[2] = cell-based binding high-content assay, mVISTA, the 15th table, read-out: HC CBA mVISTA IC50

Structure (SMILES): CCCCCCN1CC(=O)N[C@@H](Cc2ccc(O)cc2)C(=O)N[C@@H](CC(C)C)C(=O)NCC(=O)N[C@@H](CCCNC(=N)N)C(=O)N[C@@H](CCCCN)C(=O)N[C@@H](CCCCC)C(=O)N2CCC[C@H]2C(=O)N[C@@H](C(C)C)C(=O)N[C@@H](CO)C(=O)N[C@H](C(=O)NCC(=O)O)CSCC(=O)N[C@@H](Cc2ccc3ccccc3c2)C(=O)N[C@@H](Cc2ccc(O)cc2)C(=O)N[C@@H](CC(=O)O)C1=O [Ex 1296] ({CH2CO}-[2Nal]YD[NHexGly]YLGRK[Ahp(2)]PVSCG-OH; thioether N-14)
IC50 [1]: 17.3 nM

Structure (SMILES): CCCCCCN1CC(=O)N[C@@H](Cc2ccc(O)cc2)C(=O)N[C@@H](CCCC)C(=O)N[C@@H](CC(=O)O)C(=O)N[C@@H](CCCNC(=N)N)C(=O)N[C@@H](CC(C)C)C(=O)N[C@@H](CCCCC)C(=O)N2CCC[C@H]2C(=O)N[C@@H](C(C)C)C(=O)N[C@@H](CC(=O)O)C(=O)N[C@H](C(=O)NC(CO)C(N)=O)CSCC(=O)N[C@@H](Cc2ccccc2)C(=O)N[C@@H](Cc2cccc(C)c2)C(=O)N[C@@H](CC(=O)O)C1=O (some centres unmarked) [compound 1330] ({CH2CO}-F[Phe(3-Me)]D[NHexGly]Y[Nle]DRL[Ahp(2)]PVDC[ξS]-NH2; thioether N-14)
IC50 (read-out: HC CBA mVISTA IC50): 16.8 nM

Structure (SMILES): CCCCCCN1CC(=O)N[C@@H](Cc2ccc(O)cc2)C(=O)N[C@@H](CCCC)C(=O)NCC(=O)N[C@@H](CCCNC(=N)N)C(=O)N[C@@H](CC(C)C)C(=O)N[C@@H](CCCCC)C(=O)N2CCC[C@H]2C(=O)N[C@@H](C(C)C)C(=O)N[C@@H](CC(=O)O)C(=O)N[C@H](C(=O)NCC(=O)O)CSCC(=O)N[C@@H](Cc2ccc(OC)c(OC)c2)C(=O)N[C@@H](Cc2ccc(O)cc2)C(=O)N[C@@H](CC(=O)O)C1=O [compound 1458] ({CH2CO}-[Phe(3,4-(OMe)2)]YD[NHexGly]Y[Nle]GRL[Ahp(2)]PVDCG-OH; thioether N-14)
IC50 (the 20th table, scaffold drawing 23, read-out: HC CBA mVISTA IC50): 33.8 nM

Structure (SMILES): CCCCCCN1CC(=O)N[C@@H](Cc2ccc(O)cc2)C(=O)N[C@@H](CCCC)C(=O)N[C@@H](CC(N)=O)C(=O)N[C@@H](CCCNC(=N)N)C(=O)N(C)[C@@H](CCCC)C(=O)N[C@@H](CCCCC)C(=O)N2CCC[C@H]2C(=O)N[C@@H](C(C)C)C(=O)N[C@@H](C(C)C)C(=O)N[C@H](C(=O)NCC(=O)O)CSCC(=O)N[C@@H](Cc2ccc3ccccc3c2)C(=O)N[C@@H](Cc2c[nH]c3ccccc23)C(=O)N[C@@H](CC(=O)O)C1=O [compound 1248] ({CH2CO}-[2Nal]WD[NHexGly]Y[Nle]NR[NMeNle][Ahp(2)]PVVCG-OH; thioether N-14)
IC50 [2]: 38.4 nM

Structure (SMILES): CCCCCCN1CC(=O)N[C@@H](Cc2ccc(O)cc2)C(=O)N[C@@H](CCCC)C(=O)N[C@@H](CC(N)=O)C(=O)N[C@@H](CCCNC(=N)N)C(=O)N2Cc3ccccc3C[C@H]2C(=O)N[C@@H](CCCCC)C(=O)N2CCC[C@H]2C(=O)N[C@@H](C(C)C)C(=O)N[C@@H](CO)C(=O)N[C@H](C(=O)NCC(N)=O)CSCC(=O)N[C@@H](Cc2ccc3ccccc3c2)C(=O)N[C@@H](Cc2ccc(O)cc2)C(=O)N[C@@H](CC(=O)O)C1=O [Ex 1304] ({CH2CO}-[2Nal]YD[NHexGly]Y[Nle]NR[Tic][Ahp(2)]PVSCG-NH2; thioether N-14)
IC50 [1]: 31.5 nM

Structure (SMILES): CCCCCCN1CC(=O)N[C@@H](Cc2ccc(O)cc2)C(=O)N[C@@H](CCCC)C(=O)N[C@@H](CC(=O)O)C(=O)N[C@@H](CCCN)C(=O)N[C@@H](CC(C)C)C(=O)N[C@@H](CCCCC)C(=O)N2CCC[C@H]2C(=O)N[C@@H](C(C)C)C(=O)N[C@@H](CC(=O)O)C(=O)N[C@H](C(=O)N[C@@H](CC(=O)O)C(N)=O)CSCC(=O)N[C@@H](Cc2ccc3ccccc3c2)C(=O)N[C@@H](Cc2c[nH]c3ccccc23)C(=O)N[C@@H](CC(=O)O)C1=O [compound 1227] ({CH2CO}-[2Nal]WD[NHexGly]Y[Nle]D[Orn]L[Ahp(2)]PVDCD-NH2; thioether N-14)
IC50 [2]: 32.2 nM

Structure (SMILES): CCCCCCN1CC(=O)N[C@@H](Cc2ccc(O)cc2)C(=O)N[C@@H](CCCC)C(=O)N[C@@H](CC(=O)O)C(=O)N[C@@H](CCCN)C(=O)N(C)[C@@H](CCCC)C(=O)N[C@@H](CCCCC)C(=O)N2CCC[C@H]2C(=O)N[C@@H](C(C)C)C(=O)N[C@@H](CC(=O)O)C(=O)N[C@H](C(=O)N[C@@H](CC(=O)O)C(N)=O)CSCC(=O)N[C@@H](Cc2cccc(C)c2)C(=O)N[C@@H](Cc2ccc(O)cc2)C(=O)N[C@@H](CC(=O)O)C1=O [compound 1449] ({CH2CO}-[Phe(3-Me)]YD[NHexGly]Y[Nle]D[Orn][NMeNle][Ahp(2)]PVDCD-NH2; thioether N-14)
IC50 (the 19th table, scaffold drawing 22, read-out: HC CBA mVISTA IC50): 10.8 nM

Structure (SMILES): CCCCCCN1CC(=O)N[C@@H](Cc2ccc(O)cc2)C(=O)N[C@@H](CC(C)C)C(=O)N[C@@H](CC(N)=O)C(=O)N[C@@H](CCCNC(=N)N)C(=O)N[C@@H](CC(C)C)C(=O)N[C@@H](CCCCC)C(=O)N2CCC[C@H]2C(=O)N[C@@H](C(C)(C)C)C(=O)N[C@@H](CO)C(=O)N[C@H](C(=O)NCCOCCOCC(=O)N[C@@H](CCC(=O)NCCOCCOCC(=O)NCCCCCCCCCCC(=O)O)C(=O)O)CSCC(=O)N[C@@H](Cc2ccccc2)C(=O)N[C@@H](Cc2ccc(O)cc2)C(=O)N[C@@H](CC(=O)O)C1=O [compound 2235] ({CH2CO}-FYD[NHexGly]YLNRL[Ahp(2)]P[Tle]SC[AEEA][γGlu][AEEA][Aun]-OH; thioether N-14)
IC50 (read-out: HC CBA mVISTA IC50): 15.1 nM

Structure (SMILES): CCCCCCN1CC(=O)N[C@@H](Cc2ccc(O)cc2)C(=O)N[C@@H](CCCC)C(=O)N[C@@H](CC(=O)O)C(=O)N[C@@H](CCCNC(=N)N)C(=O)N(C)[C@@H](CCCC)C(=O)N[C@@H](CCCCC)C(=O)N2CCC[C@H]2C(=O)N[C@@H](C(C)C)C(=O)N[C@@H](CC(=O)O)C(=O)N[C@H](C(=O)N[C@@H](CC(=O)O)C(N)=O)CSCC(=O)N[C@@H](Cc2ccc3ccccc3c2)C(=O)N[C@@H](Cc2ccc(O)cc2)C(=O)N[C@@H](CC(=O)O)C1=O [Ex 1266] ({CH2CO}-[2Nal]YD[NHexGly]Y[Nle]DR[NMeNle][Ahp(2)]PVDCD-NH2; thioether N-14)
IC50 [1]: 6.5 nM

Structure (SMILES): CCCCCCN1CC(=O)N[C@@H](Cc2ccc(O)cc2)C(=O)N[C@@H](CCCCC)C(=O)N[C@@H](CC(N)=O)C(=O)N[C@@H](CCCNC(=N)N)C(=O)N(C)[C@@H](CCCC)C(=O)N[C@@H](CCCCC)C(=O)N2CCC[C@H]2C(=O)N[C@@H](C(C)C)C(=O)N[C@@H](CC(=O)O)C(=O)N[C@H](C(=O)NCC(=O)O)CSCC(=O)N[C@@H](Cc2ccc3ccccc3c2)C(=O)N[C@@H](Cc2c[nH]c3ccccc23)C(=O)N[C@@H](CC(=O)O)C1=O [compound 1251] ({CH2CO}-[2Nal]WD[NHexGly]Y[Ahp(2)]NR[NMeNle][Ahp(2)]PVDCG-OH; thioether N-14)
IC50 [2]: 12.5 nM

Other lines, results leading:

IC50 (read-out: HC CBA mVISTA IC50): 45.5 nM
Structure (SMILES): CCCCCCN1CC(=O)N[C@@H](Cc2ccc(O)cc2)C(=O)N[C@@H](CC(C)C)C(=O)N[C@@H](CC(N)=O)C(=O)N[C@@H](CCCN)C(=O)N(C)[C@@H](CCCC)C(=O)N[C@@H](CCCCC)C(=O)N2CCC[C@H]2C(=O)N[C@@H](C(C)(C)C)C(=O)N[C@@H](CO)C(=O)N[C@H](C(=O)NCCOCCOCC(=O)N[C@@H](CCC(=O)NCCOCCOCC(=O)NCCCCCCCCCCC(=O)O)C(=O)O)CSCC(=O)N[C@@H](Cc2ccccc2)C(=O)N[C@@H](Cc2c[nH]c3ccccc23)C(=O)N[C@@H](CC(=O)O)C1=O [compound 2280] ({CH2CO}-FWD[NHexGly]YLN[Orn][NMeNle][Ahp(2)]P[Tle]SC[AEEA][γGlu][AEEA][Aun]-OH; thioether N-14)

IC50 (read-out: HC CBA mVISTA IC50): 32.2 nM
Structure (SMILES): CCCCCCN1CC(=O)N[C@@H](Cc2ccc(O)cc2)C(=O)N[C@@H](CCCC)C(=O)N[C@@H](CC(N)=O)C(=O)N[C@@H](CCCNC(=N)N)C(=O)N2Cc3ccccc3C[C@H]2C(=O)N[C@@H](CCCCC)C(=O)N2CCC[C@H]2C(=O)N[C@@H](C(C)(C)C)C(=O)N[C@@H](CO)C(=O)N[C@H](C(=O)NCCOCCOCC(=O)N[C@@H](CCC(=O)NCCOCCOCC(=O)NCCCCCCCCCCC(=O)O)C(=O)O)CSCC(=O)N[C@@H](Cc2ccccc2)C(=O)N[C@@H](Cc2c[nH]c3ccccc23)C(=O)N[C@@H](CC(=O)O)C1=O [compound 2244] ({CH2CO}-FWD[NHexGly]Y[Nle]NR[Tic][Ahp(2)]P[Tle]SC[AEEA][γGlu][AEEA][Aun]-OH; thioether N-14)

IC50 (read-out: HC CBA mVISTA IC50): 27.8 nM
Structure (SMILES): CCCCCCN1CC(=O)N[C@@H](Cc2ccc(O)cc2)C(=O)N[C@@H](CC(C)C)C(=O)N[C@@H](CC(N)=O)C(=O)N[C@@H](CCCN)C(=O)N(C)[C@@H](CCCC)C(=O)N[C@@H](CCCCC)C(=O)N2CCC[C@H]2C(=O)N[C@@H](C(C)(C)C)C(=O)N[C@@H](CC(=O)O)C(=O)N[C@H](C(=O)NCCOCCOCC(=O)N[C@@H](CCC(=O)NCCOCCOCC(=O)NCCCCCCCCCCC(=O)O)C(=O)O)CSCC(=O)N[C@@H](Cc2ccccc2)C(=O)N[C@@H](Cc2c[nH]c3ccccc23)C(=O)N[C@@H](CC(=O)O)C1=O [compound 2283] ({CH2CO}-FWD[NHexGly]YLN[Orn][NMeNle][Ahp(2)]P[Tle]DC[AEEA][γGlu][AEEA][Aun]-OH; thioether N-14)

IC50 (cell-based binding high-content assay, read-out: HC CBA miPrISTA IC50): 18.3 nM
Structure (SMILES): CCCCCCN1CC(=O)N[C@@H](Cc2ccc(O)cc2)C(=O)N[C@@H](CCCC)C(=O)N[C@@H](CC(N)=O)C(=O)N[C@@H](CCCNC(N)=O)C(=O)N(C)[C@@H](CCCC)C(=O)N[C@@H](CCCCC)C(=O)N2CCC[C@H]2C(=O)N[C@@H](C(C)C)C(=O)N[C@@H](CO)C(=O)N[C@H](C(=O)NCCOCCOCC(=O)N[C@@H](CC(=O)O)C(=O)NCCOCCOCC(=O)NCCCCCCCCCCC(=O)O)CSCC(=O)N[C@@H](Cc2ccccc2)C(=O)N[C@@H](Cc2c[nH]c3ccccc23)C(=O)N[C@@H](CC(=O)O)C1=O (stereo in doubt) [compound 2317]
